# Measured values reported in PubChem BioAssay (NCI).
#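 1) Cells in 96-well plates. 2) Compound, 48 h, 5 concentrations. 3) Linear interpolation between surrounding doses. 4) Unreached endpoint = highest concentration. At the GI50, growth is halved. Definition used: TGI = concentration required for complete inhibition of growth.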
# Experiments:
# Experiment in all cases: DTP human tumour cell line panel, 48 h
# [1] = tested on: MALME-3M melanoma
# [2] = tested on: A498 renal
# [3] = tested on: HT29 colon
# [4] = tested on: SW-620 colon
# [5] = tested on: OVCAR-3 ovarian
# [6] = tested on: SF-539 CNS
# [7] = tested on: T-47D breast
# [8] = tested on: PC-3 prostate
# [9] = tested on: OVCAR-8 ovarian
# [10] = tested on: BT-549 breast
# [11] = tested on: SK-OV-3 ovarian
# [12] = tested on: NCI-H226 lung
# [13] = tested on: NCI-H23 lung
# [14] = tested on: RPMI-8226 leukemia
# [15] = tested on: COLO 205 colon
# [16] = tested on: NCI-H460 lung
# [17] = tested on: 786-0 renal
# [18] = tested on: MDA-MB-435
# [19] = tested on: HCC-2998 colon
# [20] = tested on: SF-295 CNS
# [21] = tested on: HCT-116 colon
# [22] = tested on: CCRF-CEM leukemia
# [23] = tested on: HCT-15 colon
# [24] = tested on: TK-10 renal
# [25] = tested on: A549 NSCLC
# [26] = tested on: NCI-H522 lung
# [27] = tested on: EKVX NSCLC
# [28] = tested on: MCF7 breast
# [29] = tested on: SK-MEL-5 melanoma
# [30] = tested on: KM12 colon
# [31] = tested on: MOLT-4 leukemia
# [32] = tested on: M14 melanoma
# [33] = tested on: UO-31 renal
# [34] = tested on: HOP-62 NSCLC
# [35] = tested on: HOP-92 NSCLC
# [36] = tested on: SR leukemia
# [37] = tested on: DU-145 prostate
# [38] = tested on: SK-MEL-28 melanoma
# [39] = tested on: CAKI-1 renal
# [40] = tested on: SN12C renal
# [41] = tested on: UACC-62 melanoma
# [42] = tested on: OVCAR-5 ovarian
# [43] = tested on: ACHN renal
# [44] = tested on: UACC-257 melanoma
# [45] = tested on: SNB-75 CNS
# [46] = tested on: SNB-19 CNS
# [47] = tested on: K-562 leukemia
# [48] = tested on: MDA-MB-231 breast
# [49] = tested on: OVCAR-4 ovarian
# [50] = tested on: U251 CNS
# [51] = tested on: HS 578T breast
# [52] = tested on: SF-268 CNS
# [53] = tested on: IGROV1 ovarian
# [54] = tested on: LOX IMVI melanoma
# [55] = tested on: HL-60(TB) leukemia
smiles,measurement,setting,value
COc1cccc(C(N)=Nc2ccc(OCCCCCCCCn3cncn3)cc2)c1,GI50,[1],310 nM
same,TGI,[1],17400 nM
same,GI50,[2],14900 nM
same,TGI,[2],59500 nM
same,GI50,[3],319 nM
same,TGI,[3],1420 nM
same,GI50,[4],387 nM
same,TGI,[4],> 100000 nM
same,GI50,[5],369 nM
same,TGI,[5],25400 nM
same,GI50,[6],235 nM
same,TGI,[6],585 nM
same,GI50,[7],426 nM
same,TGI,[7],> 72400 nM
same,GI50,[8],424 nM
same,TGI,[8],> 50300 nM
same,GI50,[9],342 nM
same,TGI,[9],2100 nM
same,GI50,[10],975 nM
same,TGI,[10],22300 nM
same,GI50,[11],540 nM
same,TGI,[11],49200 nM
same,GI50,[12],295 nM
same,TGI,[12],2050 nM
same,GI50,[13],385 nM
same,TGI,[13],15500 nM
same,GI50,[14],293 nM
same,TGI,[14],4870 nM
same,GI50,[15],315 nM
same,TGI,[15],1090 nM
same,GI50,[16],356 nM
same,TGI,[16],> 33500 nM
same,GI50,[17],812 nM
same,TGI,[17],26900 nM
same,GI50,[18],130 nM
same,TGI,[18],378 nM
same,GI50,[19],380 nM
same,TGI,[19],3520 nM
same,GI50,[20],320 nM
same,TGI,[20],11000 nM
same,GI50,[21],417 nM
same,TGI,[21],17100 nM
same,GI50,[22],292 nM
same,TGI,[22],10400 nM
same,GI50,[23],330 nM
same,TGI,[23],12400 nM
same,GI50,[24],799 nM
same,TGI,[24],> 100000 nM
same,GI50,[25],581 nM
same,TGI,[25],> 100000 nM
same,GI50,[26],274 nM
same,TGI,[26],1290 nM
same,GI50,[27],429 nM
same,TGI,[27],> 75200 nM
same,GI50,[28],266 nM
same,TGI,[28],15000 nM
same,GI50,[29],286 nM
same,TGI,[29],1090 nM
same,GI50,[30],425 nM
same,TGI,[30],> 65500 nM
same,GI50,[31],596 nM
same,TGI,[31],> 100000 nM
same,GI50,[32],324 nM
same,TGI,[32],18900 nM
same,GI50,[33],544 nM
same,TGI,[33],19900 nM
same,GI50,[34],614 nM
same,TGI,[34],18500 nM
same,GI50,[35],1630 nM
same,TGI,[35],30200 nM
same,GI50,[36],319 nM
same,TGI,[36],> 56900 nM
same,GI50,[37],417 nM
same,TGI,[37],31500 nM
same,GI50,[38],693 nM
same,TGI,[38],24100 nM
same,GI50,[39],473 nM
same,TGI,[39],45400 nM
same,GI50,[40],485 nM
same,TGI,[40],14300 nM
same,GI50,[41],435 nM
same,TGI,[41],17200 nM
same,GI50,[42],493 nM
same,TGI,[42],> 45600 nM
same,GI50,[43],650 nM
same,TGI,[43],39400 nM
same,GI50,[44],2020 nM
same,TGI,[44],27800 nM
same,GI50,[45],262 nM
same,TGI,[45],> 45400 nM
same,GI50,[46],576 nM
same,TGI,[46],> 67700 nM
same,GI50,[47],230 nM
same,TGI,[47],> 100000 nM
same,GI50,[48],385 nM
same,TGI,[48],4890 nM
same,GI50,[49],3180 nM
same,TGI,[49],> 100000 nM
same,GI50,[50],333 nM
same,TGI,[50],4570 nM
same,GI50,[51],374 nM
same,TGI,[51],38900 nM
same,GI50,[52],1990 nM
same,TGI,[52],42800 nM
same,GI50,[53],530 nM
same,TGI,[53],21000 nM
same,GI50,[54],522 nM
same,TGI,[54],11800 nM
same,GI50,[55],306 nM
same,TGI,[55],1080 nM
